Experiment [1] concerns RVH-421 (Melanoma). Description: Bliss excess, mean over the matrix (fraction); higher = more synergy. An outline of the steps:
(§1)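 After 24 hours at 37°C and 5% CO2 in 1536-well plates, cells in DMEM/F12 or RPMI plus 10% FBS received two-drug dose matrices for 72 hours. Viability came from CellTiter-Glo 2.0 luminescence and was scaled as inhibition, anchored at 0 by vehicle wells and at 1 by blank wells. Combination Emax is taken as the second-highest inhibition in the matrix, and Bliss excess as the observed combination effect less EA + EB − EA·EB, with EA and EB the single-agent effects.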

The subject of experiment [2] is MDA-MB-175-VII (Breast Carcinoma). The experiment is described as above. An outline of the steps: as §1
For another experiment, the system named is C32 (Melanoma). Described as above. An outline of the steps:
as §1

In experiment [3] the test system is HT-1197 (Bladder Carcinoma). Described as above. Summed up:
as §1

For experiment [4], the system named is BT-474 (Breast Carcinoma). The experiment is described as above. Summed up:
as §1

For experiment [5], the system named is TOV-21G (Ovarian Carcinoma). Described as above. An outline of the steps: as §1
For experiment [6], the system named is SW1463 (Colorectal Carcinoma). The experiment is described as above. Summed up: as §1
For experiment [7], the system named is NCI-H2023 (Non-Small Cell Lung Carcinoma). The description is as above. Summed up: as §1
Experiment [8] concerns SNU-1 (Gastric Carcinoma). Described as above. An outline of the steps:
as §1

Experiment [9] concerns KNS-62 (Squamous Cell Lung Carcinoma). Described as above. Summed up:
as §1

The next experiment has as its system SK-MEL-24 (Melanoma). The experiment is described as above. An outline of the steps:
as §1

A further experiment relates to A375 (Melanoma). The description is as above. Summed up: as §1
Experiment [10] relates to NCI-H1048 (Small Cell Lung Carcinoma). Described as above. Summed up:
as §1

The next experiment deals with DK-MG (Glioblastoma). Described as above. An outline of the steps: as §1
Experiment [11] concerns OVKATE (Ovarian Carcinoma). Described as above. Summed up:
as §1

For experiment [12], the system named is RVH-421 (Melanoma). Description: combination Emax (second highest fraction inhibited in the dose matrix, 72 h); higher = more inhibition; extreme values may be limits of the assay. An outline of the steps: as §1
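Throughout, for Bliss excess, mean over the matrix: after 72 h of two-drug dosing.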

Regarding `CC1(C)CCC(CN2CCN(c3ccc(C(=O)NS(=O)(=O)c4ccc(NCC5CCOCC5)c([N+](=O)[O-])c4)c(Oc4cnc5[nH]ccc5c4)c3)CC2)=C(c2ccc(Cl)cc2)C1` [Venetoclax] + Cc1cc2ncnn2cc1Nc1ncc2c(n1)n(C1CCOCC1)c(=O)n2C [AZD7648] (first compound max 1 µM, 7x7, partner max 10 µM), the Bliss excess with RVH-421 (Melanoma) [1] was -0.0443; in experiment [2] it was -0.0444; in the experiment with C32 (Melanoma), -0.0219; in experiment [3], -0.0208; in experiment [4] it was -0.0622; in experiment [5] it was -0.002. Besides, the Bliss excess is -0.0479 in [6]; -0.0513 in experiment [7]; -0.0408 in [8]; -0.0255 in experiment [9]; -0.0553 in the experiment with SK-MEL-24 (Melanoma); -0.0301 in the experiment on A375 (Melanoma). Moreover, the Bliss excess was 0.0067 in experiment [10], -0.0355 in the experiment with DK-MG (Glioblastoma) and -0.113 in [11]. Moreover, the “combination Emax” value in the experiment with RVH-421 (Melanoma) [12] stood at 0.221.
For the compound `Cc1c2c(nn1C)CSCc1cc(n(C)n1)CSc1cc(c3ccccc3c1)OCCCc1c(C(=O)O)n(C)c3c-2c(Cl)ccc13` [AZD5991] + CCN(CCO)CCCOc1ccc2c(Nc3cc(CC(=O)Nc4cccc(F)c4)[nH]n3)ncnc2c1 [AZD2811] (first compound max 1 µM, 7x7, partner max 1 µM), the Bliss excess was -0.0055 with RVH-421 (Melanoma) [1]; 0.0441 in experiment [2]; 0.05 with C32 (Melanoma); -0.0381 in experiment [3]; 0.0314 in experiment [4]; 0.0576 in experiment [5]. The Bliss excess in experiment [6] is -0.0905; in experiment [7], 0.0307; in [8], 0.0586; in experiment [9] it was 0.0156; in the experiment with SK-MEL-24 (Melanoma), 0.0258; in the experiment on A375 (Melanoma), 0.0227. In addition, the Bliss excess in experiment [10] was 0.0766; in the experiment with DK-MG (Glioblastoma), -0.0543; in [11], -0.09. Moreover, the “combination Emax” value with RVH-421 (Melanoma) [12] is 0.214.
On to `CCN(CCO)CCCOc1ccc2c(Nc3cc(CC(=O)Nc4cccc(F)c4)[nH]n3)ncnc2c1` [AZD2811] + C[C@@H]1COCCN1C2=NC(=NC(=C2)C3(CC3)[S@](=N)(=O)C)C4=C5C=CNC5=NC=C4 [AZD6738] (first compound max 1 µM, 7x7, partner max 10 µM), for which the Bliss excess in the experiment on RVH-421 (Melanoma) [1] is -0.0815; in [2], -0.0307; in the experiment on C32 (Melanoma), -0.0803; in [3] it was -0.0441; in [4] it was -0.0291; in [5], -0.0548. Besides, the Bliss excess in [6] is -0.0218; in [7] it was -0.0555; in experiment [8] it was 0.0129; in experiment [9], -0.0546; in the experiment on SK-MEL-24 (Melanoma) it was -0.0914; in the experiment with A375 (Melanoma) it was -0.0573. The figures for the Bliss excess (in experiment [10]; with DK-MG (Glioblastoma); in experiment [11]) were -0.0304, -0.0146 and -0.0822, respectively. The “combination Emax” value in the experiment with RVH-421 (Melanoma) [12] is 0.172.
As for `CC1(C)CCC(CN2CCN(c3ccc(C(=O)NS(=O)(=O)c4ccc(NCC5CCOCC5)c([N+](=O)[O-])c4)c(Oc4cnc5[nH]ccc5c4)c3)CC2)=C(c2ccc(Cl)cc2)C1` [Venetoclax] + C1CN(CCC1(C(=O)N[C@@H](CCO)C2=CC=C(C=C2)Cl)N)C3=NC=NC4=C3C=CN4 [Capivasertib] (first compound max 1 µM, 7x7, partner max 3 µM), the Bliss excess in the experiment on RVH-421 (Melanoma) [1] is -0.0471; in [2], -0.0175; in the experiment on C32 (Melanoma), -0.0483; in experiment [3] it was -0.0444; in experiment [4] it was -0.0376; in [5] it was -0.0533. Moreover, the Bliss excess in [6] is -0.0424; in experiment [7] it was -0.0449; in [8], -0.0535; in [9] it was -0.0474; in the experiment on SK-MEL-24 (Melanoma), -0.0695; in the experiment with A375 (Melanoma), -0.0463. The Bliss excess was 0.0124 in experiment [10], -0.0193 in the experiment on DK-MG (Glioblastoma) and -0.0458 in experiment [11]. The “combination Emax” value with RVH-421 (Melanoma) [12] is 0.351.
Take `CN(CCO)CC[C@H](CSc1ccccc1)Nc1ccc(S(=O)(=O)NC(=O)c2ccc(N3CCC([C@@H](O)c4ccccc4-c4ccc(Cl)cc4)CC3)cc2)cc1S(=O)(=O)C(F)(F)F` [AZD4320] + C[C@@H](Nc1cc(F)cc(F)c1)c1cc(C(=O)N(C)C)cc2c(=O)cc(N3CCOCC3)oc12 [AZD8186] (first compound max 1 µM, 7x7, partner max 3 µM): the Bliss excess was 0.0798 in the experiment on RVH-421 (Melanoma) [1]; 0.0271 in [2]; -0.0046 in the experiment with C32 (Melanoma); 0.0598 in experiment [3]; 0.0516 in [4]; -0.0083 in experiment [5]. In addition, the Bliss excess is -0.0706 in [6]; -0.034 in [7]; -0.0024 in experiment [8]; 0.0068 in [9]; -0.0354 with SK-MEL-24 (Melanoma); 0 with A375 (Melanoma). The Bliss excess in experiment [10] was 0.0388; with DK-MG (Glioblastoma), -0.0164; in experiment [11], -0.0277. Also, the “combination Emax” value in the experiment on RVH-421 (Melanoma) [12] came out at 0.464.
For the compound `Cc1c2c(nn1C)CSCc1cc(n(C)n1)CSc1cc(c3ccccc3c1)OCCCc1c(C(=O)O)n(C)c3c-2c(Cl)ccc13` [AZD5991] + CC1(C)CCC(CN2CCN(c3ccc(C(=O)NS(=O)(=O)c4ccc(NCC5CCOCC5)c([N+](=O)[O-])c4)c(Oc4cnc5[nH]ccc5c4)c3)CC2)=C(c2ccc(Cl)cc2)C1 [Venetoclax] (first compound max 1 µM, 7x7, partner max 1 µM), the Bliss excess with RVH-421 (Melanoma) [1] was -0.0237; in experiment [2], -0.0306; in the experiment with C32 (Melanoma) it was 0.0147; in [3], -0.0257; in experiment [4], -0.0279; in [5], -0.0115. Besides, the Bliss excess is -0.0589 in experiment [6]; -0.0387 in [7]; 0.136 in experiment [8]; -0.0426 in experiment [9]; -0.0426 in the experiment on SK-MEL-24 (Melanoma); -0.0063 in the experiment with A375 (Melanoma). For the same compound, the values for the Bliss excess (in experiment [10]; in the experiment with DK-MG (Glioblastoma); in experiment [11]) were 0.049, -0.0696 and -0.0527, respectively. Moreover, the “combination Emax” value in the experiment on RVH-421 (Melanoma) [12] is 0.358.
With `CN(CCO)CC[C@H](CSc1ccccc1)Nc1ccc(S(=O)(=O)NC(=O)c2ccc(N3CCC([C@@H](O)c4ccccc4-c4ccc(Cl)cc4)CC3)cc2)cc1S(=O)(=O)C(F)(F)F` [AZD4320] + C[C@@H]1COCCN1C2=NC(=NC(=C2)C3(CC3)[S@](=N)(=O)C)C4=C5C=CNC5=NC=C4 [AZD6738] (first compound max 1 µM, 7x7, partner max 10 µM), the Bliss excess in the experiment on RVH-421 (Melanoma) [1] is -0.0511; in [2] it was -0.0429; in the experiment with C32 (Melanoma), 0.0653; in [3], -0.0672; in experiment [4], -0.0901; in experiment [5], -0.0224. Also, the Bliss excess in experiment [6] is -0.0236; in [7], -0.0255; in experiment [8], -0.0343; in experiment [9], -0.0338; in the experiment on SK-MEL-24 (Melanoma), -0.0584; in the experiment with A375 (Melanoma) it was -0.0221. Moreover, the Bliss excess is 0.0634 in [10], -0.0439 in the experiment on DK-MG (Glioblastoma) and -0.0581 in experiment [11]. Also, the “combination Emax” value with RVH-421 (Melanoma) [12] was determined as 0.387.
`Cc1c2c(nn1C)CSCc1cc(n(C)n1)CSc1cc(c3ccccc3c1)OCCCc1c(C(=O)O)n(C)c3c-2c(Cl)ccc13` [AZD5991] + CN(C)CCCOc1ccc(-c2ccc3ncc4c(c3c2)n(C2CCOCC2)c(=O)n4C)cn1 [AZD0156] (first compound max 1 µM, 7x7, partner max 1 µM): the Bliss excess is 0.0113 with RVH-421 (Melanoma) [1]; 0.0076 in experiment [2]; -0.0076 with C32 (Melanoma); -0.0357 in experiment [3]; 0.0064 in experiment [4]; -0.0213 in experiment [5]. For the same compound, the Bliss excess in experiment [6] was -0.0212; in [7] it was -0.0069; in experiment [8], -0.0144; in [9], -0.0201; with SK-MEL-24 (Melanoma) it was -0.0328; with A375 (Melanoma) it was 0.0053. Also, the Bliss excess in experiment [10] was 0.0136; with DK-MG (Glioblastoma), -0.0518; in experiment [11], -0.0708. Also, in the experiment on RVH-421 (Melanoma) [12], the “combination Emax” value was 0.284.

(Values after the supplement of paper PMC11061612.)
